Results on six compounds are retold here after patent US6645960B1, “Antifungal sordaricin derivatives” (Glaxo Wellcome S.A., priority 1999, dated 2003).

In experiment [1] the test system is battery of fungal organisms. To be noted: tested against a battery of fungal organisms; cited from earlier work.
Experiment [2] concerns Candida albicans 4711. As to the kind of experiment: standard in vitro screen, minimum inhibiting concentration (MIC) by two-fold serial dilution, in the presence or absence of mouse serum. It is filed as cell-based. To be noted: for MIC C.albicans4711: absence of mouse serum; for MIC 50%serum C.albicans4711: presence of 50% mouse serum. The procedure: The in vitro evaluation of the anti-fungal activity of compounds of the invention was performed on liquid or solid medium by the anti-fungal two-fold serial dilution technique of determining the minimum inhibitory concentration (MIC) of anti-fungal agent that inhibited development of growth after 24 to 48 hours of incubation at 37° C. For example a series of agar plates or broth microdilution panels containing two-fold dilutions of anti-fungal agent were inoculated with a standard culture of a clinically relevant pathogen, in the presence and absence of activated or inactivated serum. The agar plates or broth microdilution panels were then examined for the presence or absence of growth of the fungus and the appropriate MIC values determined. […] Compounds of formula (I) have been tested for antifungal activity in a standard in vitro screen and the minimum inhibiting concentration (MIC;μg/ml) determined for each compound against a relevant strain of Candida albicans in the presence or absence of mouse serum.

Where only a bound is given, the exact number is not on record here.

`CO[C@H]1[C@@H](O)[C@H](O)[C@H](OC[C@@]23C[C@@H]4[C@H](C)CC[C@H]4[C@@]4(C=O)CC2C=C(C(C)C)[C@@]34C(=O)O)O[C@@H]1C` [sordarin]: the antifungal activity entry in experiment [1] is listed as “only moderately active”.
As for “[[1R-(1α,3aβ,4β,4aβ,7β,7aα,8aβ)]8a-[(2R,6R)-(4-allyl-6-methyl-morpholin-2-yl)-oxymethyl]-4-formyl-4,4a,5,6,7,7a,8,8a-octahydro-7-methyl-3-(1-methylethyl)-1,4-methano-s-indacene-3a(1H)-carboxylic acid, pivaloyloxymethyl ester hydrochloride [Example 5]”, in experiment [2], the “MIC C.albicans4711” value was >125 µg/mL and the “MIC 50%serum C.albicans4711” value was found to be 0.05 µg/mL.
Regarding `C=CCN1C[C@H](OC[C@@]23C[C@@H]4[C@H](C)CC[C@H]4[C@@]4(C=O)C[C@@H]2C=C(C(C)C)[C@@]34C(=O)OC(C)OC(=O)OCC)O[C@H](C)C1.Cl` (single isomer, unassigned) [Example 2], in experiment [2] (hydrochloride), the “MIC C.albicans4711” value came to 8 µg/mL and the “MIC 50%serum C.albicans4711” value worked out at 0.12 µg/mL.
Regarding `C/C=C/C=C\C(=O)O[C@H]1[C@H](O)[C@H](OCC23C[C@@H]4[C@H](C)CC[C@H]4C4(C=O)CC2C=C(C(C)C)C34C(=O)O)O[C@H](C)[C@H]1OC` (stereo partly drawn) [zofimarin], the antifungal activity entry in experiment [1] is “only moderately active”.
“[[1R-(1α,3aβ,4β,4aβ,7β,7aα,8aβ)]8a-[(2R,6R)-(4-allyl-6-methyl-morpholin-2-yl)-oxymethyl]-4-formyl-4,4a,5,6,7,7a,8,8a-octahydro-7-methyl-3-(1-methylethyl)-1,4-methano-s-indacene-3a(1H)-carboxylic acid, phthalidyl ester hydrochloride [Example 4]”: the “MIC 50%serum C.albicans4711” value in experiment [2] turned out to be 0.25 µg/mL.
Turning to `C=CCN1C[C@H](OC[C@@]23C[C@@H]4[C@H](C)CC[C@H]4[C@@]4(C=O)C[C@@H]2C=C(C(C)C)[C@@]34C(=O)OC(C)OC(=O)OCC)O[C@H](C)C1.Cl` (single isomer, unassigned) [Example 3], in experiment [2] (hydrochloride), the “MIC C.albicans4711” value was 62 µg/mL and the “MIC 50%serum C.albicans4711” value turned out to be 0.06 µg/mL.
